This is an account of results in US11278555B2, “Combinational therapies for treatment of cancer comprising a bacteriochlorophyll derivative” (Yeda Research and Development Co. Ltd., priority 2016, dated 2022).

The test system of series [1] is orthotopic 4T1-Luc tumors. The experiment in a line: STL-6014 PDT and metronomic Gemzar in mice bearing 4T1-Luc tumors in the mammary pad (Scheme 1): primary tumor, survival, lung metastases, re-challenge. Type of series: in vivo, Balb/c mice. On the procedure: (§1) • (i) Bacteriochlorophyll Derivatives—The Bchl derivatives and RGD-conjugates thereof were provided by Steba Biotech (Rehovot, Israel). […] Concentration was verified by spectrophotometric measurement. STL-7012 was provided as dipotassium salt. Working solution was prepared by dissolving STL-7012 K^+ salt in 5% mannitol solution (1 mg/ml). […] WST11 was supplied as a powder and kept in the dark at −20° C. Stock was prepared by dissolving WST11 in DDW containing 5% glucose and 0.67% mannitol, aliquoted and lyophilized. Working solution was reconstituted with DDW and the concentration of solution was confirmed spectrophotometrically. Alternatively, Clinical WST11 (batch: P00611, and 10-130611) was supplied as lyophilized formulation. Material was dissolved in 5% dextrose, aliquoted and stored at −20° C. At the day of treatment the aliquot was thawed, filtered and the concentration of solution was confirmed spectrophotometrically. • (ii) Chemotherapeutic drugs preparation and storage—Gemcitabine (GEM, Gemzar®, Lilly) was purchased from a local pharmacy as a powder, dissolved in saline to a concentration of 38 mg/ml, aliquoted and stored at −20° C. Aliquots were thawed, diluted with saline to a desired concentration and used on the same day at a dose of 75 mg/kg. Cyclophosphamide (CTX, Endoxan®, Baxter Oncology Gmbh, Germany) was purchased from a local pharmacy. A stock solution of 20 mg/ml was prepared by dissolving in 0.9% NaCl, aliquoted and stored at −20° C. Aliquots were thawed, diluted with saline if needed to a desired concentration and used on the same day prepared at indicated doses. • (iii) Murine cell lines—Mammary luciferase (luc)-labeled 4T1 cell line (4T1-Luc) was a kind gift from Dr. Zvi Granot (Faculty of Medicine, The Hebrew University of Jerusalem, Israel); melanoma B16-F10 cell line was obtained from the American Type Culture Collection (ATCC, Manassas, Va.); bladder MB49 cell line was a kind gift from James Allison (MSKCC, New York, USA), and luc-labeled MB49-cell line was established using the murine stem cell virus (MSCV)-puromycin-luc-GFP construct (kindly provided by Dr. Emily Cheng, Human Oncology and Pathogenesis Program, MSKCC). 4T1 and MB49 cells were maintained in DMEM medium and B16-F10 cells in RPMI medium supplemented with 1 mmol/L sodium pyruvate, 10% fetal calf serum (FCS), 250 μg/ml hygromycin, 0.06 mg/ml penicillin and 0.1 mg/ml streptomycin. The cells were grown as monolayer at 37° C. in a humidified atmosphere (5% CO2, 95% air). • (iv) Murine tumor models—Female, Balb/c mice (6-8 week old) were grafted either subcutaneously (s.c.) into the right hind leg or orthotopically with 1×10^6 4T1 cells suspended in 50 or 1000 PBS. For the rechallenge study, 2×10^5 4T1 cells were orthotopically grafted. For bladder cancer model, 5×10^4 of MB49 or MB49-luciferase cell line were s.c. injected into the right flank of C57B/6 male mice (7-8 weeks old, Taconic, Hudson, N.Y.) 15 days prior to VTP treatment. For the efficacy study of VTP in immune compromised mice, the same number of MB49 cells was injected in the flank of Rag^−/− on C57B/6 background or C57B/6 male mice (7-8 week old, Jackson Laboratory, Bar Harbor, Me.). […] Whole body imaging of luciferase-transfected tumors and metastases were recorded five minutes following 75 mg Kg^−1 intraperitoneal (i.p.) injection of D-luciferin with respective filter sets. • (vi) PDT treatment protocol: 4T1-Luc cells were grafted in the mammary pad of Balb/c mice. […]

For series [2], the system named is splenic immune cells of 4T1-bearing mice. Description: FACS profile of splenic immune cell populations in 4T1-bearing mice after STL-6014 PDT and Gemzar. The class given is in vivo. As to the method: as §1
For series [3], the system named is s.c. 4T1-luc breast tumors. Description: WST11 VTP with or without single dose CTX in mice bearing s.c. 4T1-luc tumors in the hind leg (Scheme 4). Type of series: in vivo, Balb/c mice. The settings on record: CTX 50 or 150 mg/kg alone; WST11 VTP at low light intensity (100 mW/cm^2) alone; or combination. As to the method:
(§2) • (i) Bacteriochlorophyll Derivatives—The Bchl derivatives and RGD-conjugates thereof were provided by Steba Biotech (Rehovot, Israel). […] Concentration was verified by spectrophotometric measurement. STL-7012 was provided as dipotassium salt. Working solution was prepared by dissolving STL-7012 K^+ salt in 5% mannitol solution (1 mg/ml). […] WST11 was supplied as a powder and kept in the dark at −20° C. Stock was prepared by dissolving WST11 in DDW containing 5% glucose and 0.67% mannitol, aliquoted and lyophilized. Working solution was reconstituted with DDW and the concentration of solution was confirmed spectrophotometrically. Alternatively, Clinical WST11 (batch: P00611, and 10-130611) was supplied as lyophilized formulation. Material was dissolved in 5% dextrose, aliquoted and stored at −20° C. […] Aliquots were thawed, diluted with saline to a desired concentration and used on the same day at a dose of 75 mg/kg. Cyclophosphamide (CTX, Endoxan®, Baxter Oncology Gmbh, Germany) was purchased from a local pharmacy. A stock solution of 20 mg/ml was prepared by dissolving in 0.9% NaCl, aliquoted and stored at −20° C. Aliquots were thawed, diluted with saline if needed to a desired concentration and used on the same day prepared at indicated doses. • (iii) Murine cell lines—Mammary luciferase (luc)-labeled 4T1 cell line (4T1-Luc) was a kind gift from Dr. Zvi Granot (Faculty of Medicine, The Hebrew University of Jerusalem, Israel); melanoma B16-F10 cell line was obtained from the American Type Culture Collection (ATCC, Manassas, Va.); bladder MB49 cell line was a kind gift from James Allison (MSKCC, New York, USA), and luc-labeled MB49-cell line was established using the murine stem cell virus (MSCV)-puromycin-luc-GFP construct (kindly provided by Dr. Emily Cheng, Human Oncology and Pathogenesis Program, MSKCC). 4T1 and MB49 cells were maintained in DMEM medium and B16-F10 cells in RPMI medium supplemented with 1 mmol/L sodium pyruvate, 10% fetal calf serum (FCS), 250 μg/ml hygromycin, 0.06 mg/ml penicillin and 0.1 mg/ml streptomycin. The cells were grown as monolayer at 37° C. in a humidified atmosphere (5% CO2, 95% air). • (iv) Murine tumor models—Female, Balb/c mice (6-8 week old) were grafted either subcutaneously (s.c.) into the right hind leg or orthotopically with 1×10^6 4T1 cells suspended in 50 or 1000 PBS. […] Whole body imaging of luciferase-transfected tumors and metastases were recorded five minutes following 75 mg Kg^−1 intraperitoneal (i.p.) injection of D-luciferin with respective filter sets. • (vi) PDT treatment protocol: 4T1-Luc cells were grafted in the mammary pad of Balb/c mice. […] Ablation of primary tumors was assessed every 7 days by imaging the tumor's luciferase-mediated bioluminescence signal, using IVIS.

Series [4] concerns Foxp3+ Treg, CD8+ T cells, G-MDSC/neutrophils. Type of series: in vivo. On the procedure: as §2
The subject of series [5] is orthotopic 4T1-Luc breast tumors. Description: Whole-body NIR fluorescence imaging of accumulation and clearance in 4T1 tumor bearing mice. Type of series: in vivo. Particulars: i.v. On the procedure:
• (i) Bacteriochlorophyll Derivatives—The Bchl derivatives and RGD-conjugates thereof were provided by Steba Biotech (Rehovot, Israel). […] Concentration was verified by spectrophotometric measurement. STL-7012 was provided as dipotassium salt. Working solution was prepared by dissolving STL-7012 K^+ salt in 5% mannitol solution (1 mg/ml). […] WST11 was supplied as a powder and kept in the dark at −20° C. Stock was prepared by dissolving WST11 in DDW containing 5% glucose and 0.67% mannitol, aliquoted and lyophilized. Working solution was reconstituted with DDW and the concentration of solution was confirmed spectrophotometrically. Alternatively, Clinical WST11 (batch: P00611, and 10-130611) was supplied as lyophilized formulation. Material was dissolved in 5% dextrose, aliquoted and stored at −20° C. […] Aliquots were thawed, diluted with saline to a desired concentration and used on the same day at a dose of 75 mg/kg. […] Whole body imaging of luciferase-transfected tumors and metastases were recorded five minutes following 75 mg Kg^−1 intraperitoneal (i.p.) injection of D-luciferin with respective filter sets. • (vi) PDT treatment protocol: 4T1-Luc cells were grafted in the mammary pad of Balb/c mice. […] Ablation of primary tumors was assessed every 7 days by imaging the tumor's luciferase-mediated bioluminescence signal, using IVIS.

In the case of “3^1-oxo-15-methoxycarbonylmethyl-Rhodobacteriochlorin 13^1-(2-sulfoethyl)amide-17^3-(cycloRGDfK) amide potassium salt [STL-6014]”, the “survival compared to control (Kaplan-Meier)” value in series [1] (120 days follow up, monotherapy) was “did not show any significant survival difference”. Further, the “animals with primary tumor regrowth” value in series [1] (day 30 post treatment) was 82%. The “percentage of G-MDSC/neutrophils and M-MDSC in spleen compared to control” value in series [2] (first week post treatment) is “significantly reduced”. The “effect on Treg populations in spleen compared with controls” value in series [2] (mouse, in vivo) is “Much smaller effects”.
On to `O=P1(N(CCCl)CCCl)NCCCO1` (stereo not shown) [CTX, Cyclophosphamide], for which, in series [3], the primary tumor growth result was “unable to suppress primary tumor growth”. For the same compound, the “number of cells in the draining lymph nodes and spleens” value in series [4] (low dose CTX three days prior VTP, on the VTP day) is on record as “reduced”. Besides, in series [4] (three days after CTX administration), the “tumor infiltration by regulatory Foxp3+ T cells” value is listed as “significantly reduces”. In series [4] (three days post low dose CTX (VTP day)), the “G-MDSC/neutrophils in the tumor microenvironment” value is listed as “reduced”.
Turning to `CC[C@H]1c2cc3[nH]c(c(CC(=O)OC)c4nc(cc5[nH]c(cc(n2)[C@@H]1C)c(C(C)=O)c5C)[C@@H](C)[C@@H]4CCC(=O)O)c(C(=O)NCCS(=O)(=O)[O-])c3C.[K+]` [STL-7012, 3^1-oxo-15-methoxycarbonylmethyl-Rhodobacteriochlorin 13^1-(2-sulfoethyl) amide dipotassium salt], in series [5], the clearance result was “cleared through the liver within a few hours of injection”. Besides, the “accumulation in the tumor (NIR fluorescence)” value in series [5] (STL-6014 7.5 mg/kg, STL-7012 9.5 mg/kg) was “did not accumulate in the tumor”.
